Measured values taken from patent publication US12122802B2, “D-allose crystal and production method thereof” (MATSUTANI CHEMICAL INDUSTRY CO., LTD., priority 2019, dated 2024).
Values belong to the molecule of their own block, whether it stands above or below them.

Key:
[1] = repose angle measured by powder tester PT-E (fluidity of anhydrous D-allose crystals); format: physicochemical; settings: for Degree of fluidity: drying tests of Table 6, evaluated from repose angle according to Table 4
Description: The fluidity of the anhydrous D-allose crystals obtained by drying the hydrous crystals obtained in each of Tests Nos. 1 to 12 with an evaporator (30° C., 20 hPa (abs), about 2 hours) as described above was evaluated by the repose angle measured by a powder tester PT-E (manufactured by Hosokawa Micron Corporation). Specifically, a sample was dropped and deposited on a disk, and the inclination angle was measured from three directions to obtain an average value. From the average value, the degree of fluidity was evaluated according to Table 1 in the Japanese Pharmacopoeia, 17th edition, Reference Information G2 physical property-related “Powder Fluidity” (same as the so-called Carr's fluidity index table, shown as Table 4).
(§1) In order to measure the water content in the crystals obtained by each of the drying methods, drying under reduced pressure under conditions at 70° C. for 18 hours was performed to calculate the water content in the crystals from the weight loss through the drying under reduced pressure. The repose angle was measured by the method described above to determine the degree of fluidity. The yield rate was calculated by the following expression. Yield rate (%)=(D/C)×100 [Expression 4]

[2] = water content in crystals from weight loss on drying under reduced pressure at 70° C. for 18 hours; format: physicochemical; settings: hydrous D-allose crystals (purity 99.9%, water content 17.7%) dried under the named drying conditions
Description: as §1

[3] = in vivo; cited from earlier work
active oxygen in cells = settings: cited from earlier work
cancer cells = settings: cited from earlier work
[4] = particle size distribution by laser diffraction (Mastersizer 3000, dry dispersion unit Aero S); format: physicochemical; settings: average of 5 measurements, dispersion pressure 1.0 bar
Text: The melting point (Tm) in the DSC refers to the melting start temperature of the endothermic peak obtained by DSC measurement (temperature at the extrapolated intersection of the base line and the maximum slope line of the endothermic peak), and the melting enthalpy (ΔH) refers to the area of the endothermic peak (ASTM D3418-15, Standard Test Method for Transition Temperatures and Enthalpies of Fusion and Crystallization of Polymers by Differential Scanning calorimetry). Further, in the present invention, the average particle size refers to the volume-based average particle size d[4,3], which is usually measured with a laser diffraction particle size distribution analyzer.
Next, the particle size distribution of the anhydrous D-allose crystals of the present invention was examined. Specifically, the anhydrous D-allose crystals obtained in the previous Test Nos. 1 to 5, 7 to 10 and 12, were subjected to measurement of particle size distribution under the measurement conditions shown in Table 7 using “Mastersizer 3000” and a “dry dispersion unit Aero S” manufactured by Malvern Instruments. More specifically, the measurement was repeated 5 times, and the average value of the 5 times measurements was used. No great variability was seen among the 5 times measurement values. The particle size distribution was expressed on a volume basis, and the volume-based average particle size d[4,3] and standard deviation σ were recorded. Also, the coefficient of variation CV=σ/d[4,3] was calculated in order to relatively evaluate the variation in the particle size distribution.

[5] = aspect ratio of crystals from microscopic picture (Digital microscope VHX-5000, 50x); format: physicochemical
Text: The “anhydrous D-allose crystals” of the present invention have an extremely large average particle size as described above and are not in a fine needle form, having a characteristic aspect ratio of the crystal. In the present invention, the aspect ratio refers to the ratio of the long diameter to the short diameter of a crystal (short diameter: minimum length of lines passing through the center of gravity of the plane shape of a crystal, long diameter: maximum length of a crystal measured orthogonal to the short diameter). In the present specification, the aspect ratio in a numerical range from A to B (A and B: arbitrary numbers) means that all of the aspect ratios of a specified number (preferably at least 10, for example 10) of crystal particles randomly selected are within the numerical range. Example of random selection of crystal particles includes a method comprising taking a microscopic picture of crystals at 20× to 50× magnification and, from the crystals on the diagonal line drawn from the upper left to the lower right of the microscopic picture taken, selecting 10 crystals with a full body shown in order from the upper left on the diagonal line. Specifically, the aspect ratio is preferably 1.0 to 10.0, more preferably 2.0 to 8.0, still more preferably 2.0 to 7.0. Next, the aspect ratio of the anhydrous D-allose crystals of the present invention was examined. Specifically, a microscopic picture of each of the anhydrous D-allose crystals obtained in the previous Test Nos. 1 to 5, 7 to 10 and 12 were taken using “Digital microscope VHX-5000” manufactured by KEYENCE Corporation (50×magnification). Among the crystals on the diagonal line drawn from the upper left to the lower right of the microscopic picture taken, 10 crystals with a full picture shown were selected in order from the upper left and then the long diameter and the short diameter of each crystal were measured for calculation of the aspect ratio (Long diameter/Short diameter, wherein short diameter refers to minimum length of lines passing through the center of gravity of the plane shape of a crystal, and long diameter refers to maximum length of a crystal measured orthogonal to the short diameter). The minimum value of the aspect ratio was 1.1 and the maximum value was 9.6 (Table 9).

[6] = drying tests of Table 6, crystals after the named drying conditions

Repose angle (degrees) ([1]; anhydrous crystals of Test Nos. 1 to 12, hydrous crystals dried with evaporator (30° C., 20 hPa (abs), about 2 hours), average of three directions, listed as 8): 41.7 degrees
d [4, 3] (volume-based average particle size) ([4]; listed as 8): 708 μm
Aspect ratio (Long diameter/Short diameter) ([5]; crystal ① of 10 selected, listed as 8): 3.5
Aspect ratio (Long diameter/Short diameter) ([5]; crystal ② of 10 selected, listed as 8): 7.7
Aspect ratio (Long diameter/Short diameter) ([5]; crystal ③ of 10 selected, listed as 8): 2.0
Aspect ratio (Long diameter/Short diameter) ([5]; crystal ④ of 10 selected, listed as 8): 3.6
Aspect ratio (Long diameter/Short diameter) ([5]; crystal ⑤ of 10 selected, listed as 8): 3.1
Aspect ratio (Long diameter/Short diameter) ([5]; crystal ⑥ of 10 selected, listed as 8): 2.8
Aspect ratio (Long diameter/Short diameter) ([5]; crystal ⑦ of 10 selected, listed as 8): 3.8
Aspect ratio (Long diameter/Short diameter) ([5]; crystal ⑧ of 10 selected, listed as 8): 4.7
Aspect ratio (Long diameter/Short diameter) ([5]; crystal ⑨ of 10 selected, listed as 8): 1.7
Aspect ratio (Long diameter/Short diameter) ([5]; crystal ⑩ of 10 selected, listed as 8): 3.3
SMILES: O=C[C@H](O)[C@H](O)[C@H](O)[C@H](O)CO [Test No. 8, D-allose]

Repose angle (degrees) ([1]; anhydrous crystals of Test Nos. 1 to 12, hydrous crystals dried with evaporator (30° C., 20 hPa (abs), about 2 hours), average of three directions, listed as 9): 41.0 degrees
d [4, 3] (volume-based average particle size) ([4]; listed as 9): 600 μm
Aspect ratio (Long diameter/Short diameter) ([5]; crystal ① of 10 selected, listed as 9): 6.2
Aspect ratio (Long diameter/Short diameter) ([5]; crystal ② of 10 selected, listed as 9): 4.3
Aspect ratio (Long diameter/Short diameter) ([5]; crystal ③ of 10 selected, listed as 9): 5.7
Aspect ratio (Long diameter/Short diameter) ([5]; crystal ④ of 10 selected, listed as 9): 3.0
Aspect ratio (Long diameter/Short diameter) ([5]; crystal ⑤ of 10 selected, listed as 9): 3.5
Aspect ratio (Long diameter/Short diameter) ([5]; crystal ⑥ of 10 selected, listed as 9): 5.9
Aspect ratio (Long diameter/Short diameter) ([5]; crystal ⑦ of 10 selected, listed as 9): 4.6
Aspect ratio (Long diameter/Short diameter) ([5]; crystal ⑧ of 10 selected, listed as 9): 2.6
Aspect ratio (Long diameter/Short diameter) ([5]; crystal ⑨ of 10 selected, listed as 9): 3.6
Aspect ratio (Long diameter/Short diameter) ([5]; crystal ⑩ of 10 selected, listed as 9): 1.9
SMILES: O=C[C@H](O)[C@H](O)[C@H](O)[C@H](O)CO [Test No. 9, D-allose]

Repose angle (degrees) ([1]; anhydrous crystals of Test Nos. 1 to 12, hydrous crystals dried with evaporator (30° C., 20 hPa (abs), about 2 hours), average of three directions, listed as 10): 41.3 degrees
d [4, 3] (volume-based average particle size) ([4]; listed as 10): 492 μm
Aspect ratio (Long diameter/Short diameter) ([5]; crystal ① of 10 selected, listed as 10): 1.6
Aspect ratio (Long diameter/Short diameter) ([5]; crystal ② of 10 selected, listed as 10): 3.9
Aspect ratio (Long diameter/Short diameter) ([5]; crystal ③ of 10 selected, listed as 10): 5.6
Aspect ratio (Long diameter/Short diameter) ([5]; crystal ④ of 10 selected, listed as 10): 2.1
Aspect ratio (Long diameter/Short diameter) ([5]; crystal ⑤ of 10 selected, listed as 10): 4.0
Aspect ratio (Long diameter/Short diameter) ([5]; crystal ⑥ of 10 selected, listed as 10): 9.6
Aspect ratio (Long diameter/Short diameter) ([5]; crystal ⑦ of 10 selected, listed as 10): 2.3
Aspect ratio (Long diameter/Short diameter) ([5]; crystal ⑧ of 10 selected, listed as 10): 3.3
Aspect ratio (Long diameter/Short diameter) ([5]; crystal ⑨ of 10 selected, listed as 10): 4.6
Aspect ratio (Long diameter/Short diameter) ([5]; crystal ⑩ of 10 selected, listed as 10): 5.4
SMILES: O=C[C@H](O)[C@H](O)[C@H](O)[C@H](O)CO [Test No. 10, D-allose]

Repose angle (degrees) ([1]; anhydrous crystals of Test Nos. 1 to 12, hydrous crystals dried with evaporator (30° C., 20 hPa (abs), about 2 hours), average of three directions, listed as 12): 41.3 degrees
d [4, 3] (volume-based average particle size) ([4]; listed as 12): 333 μm
Aspect ratio (Long diameter/Short diameter) ([5]; crystal ① of 10 selected, listed as 12): 3.1
Aspect ratio (Long diameter/Short diameter) ([5]; crystal ② of 10 selected, listed as 12): 3.3
Aspect ratio (Long diameter/Short diameter) ([5]; crystal ③ of 10 selected, listed as 12): 4.2
Aspect ratio (Long diameter/Short diameter) ([5]; crystal ④ of 10 selected, listed as 12): 3.8
Aspect ratio (Long diameter/Short diameter) ([5]; crystal ⑤ of 10 selected, listed as 12): 3.6
Aspect ratio (Long diameter/Short diameter) ([5]; crystal ⑥ of 10 selected, listed as 12): 4.4
Aspect ratio (Long diameter/Short diameter) ([5]; crystal ⑦ of 10 selected, listed as 12): 4.7
Aspect ratio (Long diameter/Short diameter) ([5]; crystal ⑧ of 10 selected, listed as 12): 3.7
Aspect ratio (Long diameter/Short diameter) ([5]; crystal ⑨ of 10 selected, listed as 12): 3.7
Aspect ratio (Long diameter/Short diameter) ([5]; crystal ⑩ of 10 selected, listed as 12): 1.3
SMILES: O=C[C@H](O)[C@H](O)[C@H](O)[C@H](O)CO [Test No. 12, D-allose]

Repose angle (degrees) [1, 6]: 45.7 degrees
Degree of fluidity [1]: Passable (41~45)
Water content (%) after drying [2]: 0.052%
SMILES: O=C[C@H](O)[C@H](O)[C@H](O)[C@H](O)CO [Ultra-low humidity drying (20 to 24° C.), D-allose]

Second part, the molecule before the results:

SMILES: O=C[C@H](O)[C@H](O)[C@H](O)[C@H](O)CO [Conductive heat transfer drying at 40° C.] [D-allose]
Repose angle (degrees) [1, 6]: 41.3 degrees
Degree of fluidity [1]: Passable (41~45)
Water content (%) after drying [2]: 0.13%

SMILES: O=C[C@H](O)[C@H](O)[C@H](O)[C@H](O)CO [Conductive heat transfer drying at 50° C.] [D-allose]
Repose angle (degrees) [1, 6]: 42 degrees
Degree of fluidity [1]: Passable (41~45)
Water content (%) after drying [2]: 0.099%

SMILES: O=C[C@H](O)[C@H](O)[C@H](O)[C@H](O)CO [Conductive heat transfer drying at 60° C.] [D-allose]
Repose angle (degrees) [1, 6]: 41.7 degrees
Degree of fluidity [1]: Passable (41~45)
Water content (%) after drying [2]: 0.18%

SMILES: O=C[C@H](O)[C@H](O)[C@H](O)[C@H](O)CO [Conductive heat transfer drying at 70° C.] [D-allose]
Repose angle (degrees) [1, 6]: 44 degrees
Degree of fluidity [1]: Passable (41~45)
Water content (%) after drying [2]: 0.105%

SMILES: O=C[C@H](O)[C@H](O)[C@H](O)[C@H](O)CO [Convection heat transfer drying at 40° C., Air supply: 3900 ] [D-allose]
Repose angle (degrees) [1, 6]: 41.3 degrees
Degree of fluidity [1]: Passable (41~45)
Water content (%) after drying [2]: 0.14%

SMILES: O=C[C@H](O)[C@H](O)[C@H](O)[C@H](O)CO [Convection heat transfer drying at 40° C., Air supply: 6000 ] [D-allose]
Repose angle (degrees) [1, 6]: 41.7 degrees
Degree of fluidity [1]: Passable (41~45)
Water content (%) after drying [2]: 0.13%

SMILES: O=C[C@H](O)[C@H](O)[C@H](O)[C@H](O)CO [Convection heat transfer drying at 50° C., Air supply: 4700 ] [D-allose]
Repose angle (degrees) [1, 6]: 42 degrees
Degree of fluidity [1]: Passable (41~45)
Water content (%) after drying [2]: 0.13%

SMILES: O=C[C@H](O)[C@H](O)[C@H](O)[C@H](O)CO [D-allose]
effect on increase in blood pressure [3]: effect for suppressing an increase in blood pressure
effect on generation of active oxygen in cells (active oxygen in cells): effect for suppressing generation of active oxygen in cells
effect on growth of cancer cells (cancer cells): effect for suppressing growth of cancer cells
